From ChEMBL document CHEMBL1145742, “Investigation of an antibody-ligase. Evidence for strain-induced catalysis” (Bioorg Med Chem Lett, 2003) come the findings set out here.

Test [1] is described as follows: Kinetic parameter KM against monoclonal antibody 16 G3.
Test [2] can be described thus: Kinetic parameter Kuncat against monoclonal antibody 16 G3.
Test [3] in a line: Kinetic parameter effective molarity against monoclonal antibody 16 G3.
The nature of test [4]: Kinetic parameter Kcat against monoclonal antibody 16 G3.
The nature of test [5]: Substrate specificity, the ratio of Kcat to that of Km was determined against monoclonal antibody 16 G3.
A short description of test [6]: Kinetic parameter Vmax against monoclonal antibody 16 G3.

Turning to `NC(=O)[C@H](N)Cc1c[nH]c2ccccc12`, in test [1], the Michaelis constant (Km) worked out at 900 µM.
For the compound `O=C(O)CCCC(=O)N[C@H](C(=O)Oc1ccc([N+](=O)[O-])cc1)C1CCCCC1`, the Kuncat in test [2] is 0.000833 M⁻¹ s⁻¹. For the same compound, the Km in test [1] is 300 µM. Moreover, the Molarity in test [3] was found to be 2 M. For the same compound, the k cat in test [4] was determined as 0.00167 s⁻¹. Further, the Substrate specificity in test [5] is 3. Also, the Vmax in test [6] was 1 µM/min.
In test [2], `O=C(O)CCCC(=O)N[C@@H](Cc1ccccc1)C(=O)Oc1ccc([N+](=O)[O-])cc1` came in with a Kuncat of 0.000667 M⁻¹ s⁻¹. Besides, in test [1], the Km was 100 µM. In test [3], this compound came in with a Molarity of 15 M. The k cat in test [4] came to 0.01 s⁻¹. In test [5], the Substrate specificity came out at 6. In addition, the Vmax in test [6] was 6 µM/min.

What is called Km is the concentration of substrate that gives half-maximal velocity. By Vmax is commonly meant the top rate of the reaction or transport when substrate is in excess.
